Two compounds from publication PMC6745035, “Novel tetrahydroacridine derivatives with iodobenzoic moieties induce G0/G1 cell cycle arrest and apoptosis in A549 non-small lung cancer and HT-29 colorectal cancer cells” (Molecular and Cellular Biochemistry, 2019) can be followed below.

In one assay the test system is HT-29 cells. Description: Colony forming assay, HT-29.
For the next assay, the system named is A549 cells. Description: Cell cycle analysis (PI, flow cytometry), A549. The format is cell-based, human. To be noted: A549, 24 h, compound at 1/2IC50 (1i 7.44 µM). The method, then: Then, compounds were added into the wells and cells were further incubated for 24 h. After incubation, monolayer and supernatant cells were harvested and washed in PBS. Then, cells were centrifuged (monolayer—1200 rpm for 10 min, supernatant 3500 rpm for 10 min) and fixed in cold 70% ethanol. Pellets were kept at 4 °C for at least 2 h. Prior to analysis, cells were centrifuged and re-suspended in RNAsi (type 1-A; Sigma Aldrich)—PBS working solution (200 µg/mL). Samples were incubated at 37 °C for 10 min. At the end, 3 µL of 2 mg/mL propidium iodide (PI) (Sigma Aldrich) solution was added to each sample. Samples were kept in the dark prior to analysis. Analysis was performed on BD Accuri C6 Flow Cytometry (Becton–Dickinson). Etoposide (Calbiochem) was used as a reference drug. Experiments were done in triplicates.
In general terms: In flow cytometry, cells or beads pass a laser one at a time.

For a further assay, the system named is SH-SY5Y cells. Put plainly: Cytoprotection against rotenone/oligomycin A, co-incubation, MTT. The note with it: co-incubation with rotenone/oligomycin A, 0.001 µM. Type of assay: cell-based, human. The method, then: In the co-incubation assay, compounds and mixture of R/O were incubated together for 24 h. […] It turned out that none of the compounds (apart from 1i at the concentration of 0.001 µM and cytoprotection of 2.99%) had cytoprotective properties in the whole range of concentrations (Fig. 17). Compounds were not able to capture free radicals; therefore they cannot be classified as free-radical scavengers.

On to `O=C(NCCCCNc1c2c(nc3ccccc13)CCCC2)c1ccccc1I` [Compound 1c], for which the “Number of colonies expressed as percent of control number” value with HT-29 cells (compound at 1/2IC50) is 10.06%; in the assay on HT-29 cells (compound at 2xIC50), 0%; in the assay on HT-29 cells (compound at IC50) it was 4.38%.

`O=C(NCCCCNc1c2c(nc3ccccc13)CCCC2)c1ccc(I)cc1` [Compound 1i]: in the assay with A549 cells, the “Cells in G2/M phase” value stood at 11.31% and the “Cells in S phase” value stood at 12.76%. In the assay with A549 cells (control 51.74%), the “Cells in G0/G1 phase” value is given as 75.93%. The Cytoprotection in the assay on SH-SY5Y cells was found to be 2.99%.
